Measured values: patent EP2891491A1, “Use of (r)-phenylpiracetam for the treatment of sleep disorders” (Merz Pharma GmbH & Co. KGaA, priority 2014, dated 2015)

How the values were obtained:
[1] = system: subjects with PD and EDS; conditions: 200 to 400 mg/day vs placebo, 40 subjects with PD and EDS; cited from earlier work
[2] = system: rats; assay: motivation tests: progressive ratio task, cost-benefit choice test, consumption test; type: in vivo
Protocol: EXAMPLE 6: Effect of (R)-phenylpiracetam in motivation tests - Figs. 5, 6, 7, 8
Methylphenidate purchased from Sigma (Taufkirchen, Germany) was dissolved in distilled water fresh for each test day. D-Amphetamine purchased from Sigma (Taufkirchen, Germany) was dissolved in 0.9% sterile NaCl solution fresh for each test day. (R)-Phenylpiracetam was dissolved in distilled water fresh for each test day.
One hundred and three male Sprague-Dawley rats (Janvier, Le Genest-St-Isle, France) weighing 225-250 g on arrival were used.
The animals were kept under standard laboratory conditions in groups of up to 4 per care with ad libitum access to water. Standard diet for rodents (Altromin) was available to the animals at 15 g per animal/day
For each test described below, two independent experiments were performed using an identical protocol. After continuous reinforcement training (CRF) training (see below) all animals were assigned to treatment groups, such that performance across all the groups was similar. The treatment groups were evenly distributed throughout the caging system.
In experiment 1 and 2 the following protocols were used:
Overview: Three tests were performed in a consecutive manner on subsequent days. On day 1-2, animals were habituated individually to Skinner boxes in two sessions, one per day, for 30 min. Animals received "free" food pellets at a random time (one pellet per minute on average). On days 3-8 animals were trained in Skinner boxes on a continuous reinforcement schedule (one pellet per lever press). On days 9-10 they were tested in the progressive ratio test (Test 1) off-drug, on days 11-12 on-drug. On day 13, a choice test (Test 2) was performed on-drug, on day 14, a consumption test (Test 3) was performed on-drug. Below, tests are described in detail.
Behavioral testing was conducted in 12 operant test chambers (Med Associates, St. Albans, USA). Each chamber was equipped with a retractable lever, a food dispenser with receptacle, an overhead house light and two stimulus lights, one above the lever and the other above the food receptacle. An infrared photocell beam detected nose pokes into the food receptacle. The apparatus was controlled by a computer system (SmartControl®-Interface and MedPC-software, Med Associates, St. Albans, USA). The light above the food receptacle indicated the delivery of a food pellet in the receptacle. Rats were first habituated to the operant boxes for two sessions (30 min each) on two consecutive days. Thereafter, animals were trained for six sessions on the CRF schedule for 30 min. Followed by 4 sessions (two session off-drug followed by two sessions on-drug) of an increasing fixed ratio (FR) schedule in steps of 5, with 3 repetitions of each step (i.e. 1-1-1; 5-5-5; 10-10-10; ...). When the required FR value of each trial was achieved the light above the food receptacle indicated the delivery of a single food pellet (45 mg, Bioserve, USA). The light remained on until the rat poked its nose in the receptacle. Lever presses while the light was on were counted as perseverative lever presses; they were counted but had no programmed consequences. […] For each session, the value of the last completed ratio (breaking point) was recorded as well as the amount of received rewards, the perseverative lever presses, the duration of the session and the latency to respond. Animals of all treatment groups received respective vehicle/drug infusions 30 min pre-test on the final two sessions involving testing under a PR schedule.
In this task the rats had the choice between working for their preferred food (Bioserve pellets) by pressing the lever on a PR schedule as described above or obtaining lab chow being freely available in a dish (about 15 g) within the operant chamber. The food receptacle and the lever were positioned on the same wall of the operant chamber, the dish containing the lab chow was situated in a corner on the opposite side of the operant chamber. […]

[3] = just slightly stronger with (R)- than with (S)-phenylpiracetam; cited from earlier work
[4] = humans, administered orally; cited from earlier work

NC(=O)C[S+]([O-])C(c1ccccc1)c1ccccc1 (stereo not drawn) [modafinil]
Epworth sleepiness score (primary outcome measure) and secondary outcome measures [1]: no benefit

NC(=O)CN1C[C@H](c2ccccc2)CC1=O [(S)-phenylpiracetam, reference compound]
effect on motivation ([2]; 100 mg/kg): only a very weak effect
effect on motivation relative to (R)-phenylpiracetam ([2]; 100 mg/kg, times lower than (R)-phenylpiracetam): 2.5 times
effect on motivation ([2]; 200 mg/kg): no significant effect
locomotor activity in the open-field test [3]: significant increase

NC(=O)CN1CC(c2ccccc2)CC1=O (racemic) [phenylpiracetam, 2-(4-phenyl-2-oxopyrrolidin-1-yl)acetamide]
half-life [4]: 3 to 5 h
